Data: patent US20090202574A1, “METHODS OF IMMUNE OR HAEMATOLOGICAL ENHANCEMENT, INHIBITING TUMOUR FORMATION OR GROWTH, AND TREATING OR PREVENTING CANCER” (priority 2004, published 2009)

Assays:
IL-18 = IL-18 production by cultured intestinal loops; type: cell-based, mice; details: Example 20; 400 and 800 μg/ml; 48 h
Protocol: Cytokine levels in the supernatants of homogenates of the small intestine were determined using a “sandwich” ELISA kit (Endogen, Woburn, Mass.). They were detected within standard curve ranges of 15-375 pg/ml for IL-4, 0-2450 pg/ml for IL-5, 15-1000 pg/ml for TNF-α, 0-3000 pg/ml for IFN-γ, 37-3000 pg/ml for IL-10, 31.3-2000 pg/ml for IL-12, and 31.3-2000 pg/ml for IL-18, respectively. Quantification of nitrite, indicative of NO production, was carried out by the Griess reaction (Sigma, USA). The results are expressed as the mean nitrite concentration (μM)±SD.
100% Fe-saturated Lf, natural Lf (less than 20% iron saturated), and bovine serum albumin control were added at 400 and 800 μg/ml to intestinal loops (2.5 cm segments of the small intestine) prepared from healthy 6 to 7 week-old female mice, which were kept in culture for 48 h. IL-18 levels released by the intestinal loops, and present in the supernatants of homogenates of the small intestine were determined using a “sandwich” ELISA kit as described above.

EL-4 tumours = experiment: EL-4 tumour growth in mice (s.c. flank tumour model); type: in vivo, C57BL/6 mice; details: for EL-4 tumour response: Example 18, 28 g Fe-Lf per 2.4 Kg diet, drugs i.p. at ~0.4 to 0.5 cm
EL-4 target cells = experiment: Anti-tumour CTL and/or NK cell cytolytic activity of splenocytes against EL-4 target cells; details: Example 18; mice fed control diet
Protocol: Splenocytes were harvested 28 days following tumour cell injection, as specified. They were incubated at 37° C. with EL-4 target cells in graded E:T ratios in 96-well round-bottom plates. After a 4-hour incubation, 50 μl of supernatant was collected, and lysis was measured using the Cyto Tox 96 Assay Kit (Promega, Madison, Wis., USA). Background controls for non-specific target and effector cell lysis were included. After background subtraction, percentage of cell lysis was calculated using the formula: 100× (experimental-spontaneous effector-spontaneous target/maximum target-spontaneous target).

[1] = tested on: Lewis lung carcinoma (LLC) tumours; experiment: Lewis lung carcinoma tumour growth in mice; type: in vivo, C57BL/6 mice; details: Example 18; 28 g Fe-Lf per 2.4 Kg diet; epirubucin 15 mg/Kg i.p.
Protocol: Tumors were established by s.c. injection of 2×10^5 EL-4 cells into the left flank of mice, and growth determined by measuring two perpendicular diameters. Animals were euthanased when tumors reached more than 1.0 cm in diameter, in accord with Animal Ethics Approval (University of Auckland). All experiments included 5 mice per treatment group, unless otherwise indicated. Paclitaxel (30 mg dissolved in 5 ml of Cremophor® EL and dehydrated alcohol) was diluted in 0.9% NaCl and administered i.p. at 30 mg/Kg. Doxorubucin in water was injected i.p. at 15 mg/Kg. The drugs were injected in a volume of 0.01 to 0.02 ml/g body weight. The expression vector encoding mouse B7-1 was prepared by cesium chloride gradient centrifugation, and diluted to 5 μg/μl in a solution of 5% glucose in 0.01% Triton X-100. It was mixed in a ratio of 1:1 (wt:wt) with DOTAP cationic liposomes (Boehringer Mannheim, Germany). Tumors were injected with 180 μl of DNA (180 μg)/liposome complexes, as described previously (Kanwar, et al., 1999 and Kanwar, et al., 2000).
Mice were fed the control diet, and the same diet supplemented with 28 g of 100% Fe-saturated lactoferrin per 2.4 Kg of diet. EL-4 (2×10^5), Lewis lung carcinoma (LLC, 2×10^5), and B16 melanoma (2×10^5) tumour cells were injected into the left flanks of C57BL/6 mice following two weeks on the Lf diets, or control diet. […]

Row | Compound | EL-4 tumour response (EL-4 tumours) | effect of drug alone on anti-tumour cytolytic activity (EL-4 target cells) | also measured
1 | bovine serum albumin: control protein in intestinal loop test [reference compound] | – | – | effect on the levels of IL-18 already detectable in the intestine (IL-18): negligible effect
2 | O=P1(N(CCCl)CCCl)NCCCO1 (stereo not drawn) [cyclophosphamide, reference compound] | little effect | small increases | –
3 | COc1cccc2c1C(=O)c1c(O)c3c(c(O)c1C2=O)C[C@@](O)(C(=O)CO)C[C@@H]3O[C@H]1C[C@H](N)[C@@H](O)[C@H](C)O1 [Epirubucin, reference compound] | slight delay in the growth | negligible effect | LLC tumour response [1]: slight delay in the growth
4 | CC(=O)O[C@H]1C(=O)[C@@]2(C)[C@H]([C@H](OC(=O)c3ccccc3)[C@]3(O)C[C@H](OC(=O)[C@H](O)[C@@H](NC(=O)c4ccccc4)c4ccccc4)C(C)=C1C3(C)C)[C@]1(OC(C)=O)CO[C@@H]1C[C@@H]2O [paclitaxel, reference compound] | – | – | tumour response (EL-4 tumours; Example 5, paclitaxel 30 mg/Kg i.p. at 0.5 cm tumour diameter): grew completely unchecked; tumour response to paclitaxel (EL-4 tumours; Example 15, paclitaxel 30 mg/Kg i.p. at ~0.6 cm, 20 g Lf per 2.4 Kg diet): completely resistant
5 | O=c1[nH]cc(F)c(=O)[nH]1 [fluorouracil, reference compound] | – | only slightly enhanced | –
6 | CN(Cc1cnc2nc(N)nc(N)c2n1)c1ccc(C(=O)N[C@@H](CCC(=O)O)C(=O)O)cc1 [methotrexate, reference compound] | no discernible effect | small increases | –
7 | COc1cccc2c1C(=O)c1c(O)c3c(c(O)c1C2=O)C[C@@](O)(C(=O)CO)C[C@@H]3O[C@H]1C[C@H](N)[C@H](O)[C@H](C)O1 [doxorubicin, reference compound] | – | – | tumour response (EL-4 tumours; Example 6, doxorubicin 15 mg/Kg and/or paclitaxel 30 mg/Kg single dose i.p. at ~0.55 cm): regressed to half their size within one week of administration of doxorubicin, but then began to grow again
